# Measured values: patent US20130310256A1, “HERBICIDAL COMPOSITIONS COMPRISING 4-AMINO-3-CHLORO-5-FLUORO-6-(4-CHLORO-2-FLUORO-3-METHOXYPHENYL) PYRIDINE-2-CARBOXYLIC ACID OR A DERIVATIVE THEREOF AND VLCFA AND LIPID SYNTHESIS INHIBITING HERBICIDES” (DOW AGROSCIENCES LLC, priority 2008, published 2013)
# How the values were obtained:
# ECHOR = experiment: Example II: in-water applied weed control, transplanted paddy rice, greenhouse; type: in vivo, Echinochloa oryzoides (Ard.) Fritsch (early watergrass)
# Procedure: (§1) Weed seeds or nutlets of the desired test plant species were planted in puddled soil (mud) prepared by mixing a shredded, non-sterilized mineral soil (50.5 percent silt, 25.5 percent clay, and 24 percent sand, with a pH of about 7.6 and an organic matter content of about 2.9 percent) and water at a 1:1 volumetric ratio. The prepared mud was dispensed in 365 mL aliquots into 16-ounce (oz.) non-perforated plastic pots with a surface area of 86.59 square centimeters (cm^2) leaving a headspace of 3 centimeters (cm) in each pot. Mud was allowed to dry overnight prior to planting or transplanting. Rice seeds were planted in Sun Gro MetroMix® 306 planting mixture, which typically has a pH of 6.0 to 6.8 and an organic matter content of about 30 percent, in plastic plug trays. Seedlings at the second or third leaf stage of growth were transplanted into 840 mL of mud contained in 32-oz. non-perforated plastic pots with a surface area of 86.59 cm^2 4 days prior to herbicide application. The paddy was created by filling the headspace of the pots with 2.5 to 3 cm of water. When required to ensure good germination and healthy plants, a fungicide treatment and/or other chemical or physical treatment was applied. The plants were grown for 4-22 days in a greenhouse with an approximate 14 hr photoperiod which was maintained at about 29′C during the day and 26° C. during the night. Nutrients were added as Osmocote® (19:6:12, N:P:K+ minor nutrients) at 2 g per 16-oz. pot and 4 g per 32-oz. pot. Water was added on a regular basis to maintain the paddy flood, and supplemental lighting was provided with overhead metal halide 1000-Watt lamps as necessary. The plants were employed for testing when they reached the first through fourth true leaf stage.
# (§2) Treatments consisted of the acid or esters of 4-amino-3-chloro-5-fluoro-6-(4-chloro-2-fluoro-3-methoxy-phenyl)pyridine-2-carboxylic acid (compound A) each formulated as an SC (suspension concentrate) and various herbicidal components alone and in combination. Forms of compound A were applied on an acid equivalent basis.
# (§3) The herbicidal components were applied on an active ingredient basis and included very long chain fatty acid (VLCFA) synthesis-inhibiting and fatty acid/lipid synthesis-inhibiting herbicides acetochlor (technical grade material), acetochlor+dichlormid formulateded as Topnotch®, pretilachlor (technical grade material), butachlor formulated as Butachlor EC, fentrazamide formulated as Fentrazamide EC, thiobencarb formulated as Bolero® 8EC, cafenstrole formulated as Himeadow® WP or Lapost® Flowable, benfuresate formulated as Full Shot®, anilofos (technical grade material), mefenacet (technical grade material), molinate (technical grade material), and thenylchlor (technical grade material).
# (§4) Treatment requirements for each compound or herbicidal component were calculated based upon the rates being tested, the concentration of active ingredient or acid equivalent in the formulation, an application volume of 2 mL per component per pot, and an application area of 86.59 cm^2 per pot.
# (§5) For formulated compounds, a measured amount was placed in an individual 100 or 200 mL glass vial and was dissolved in a volume of 1.25% (v/v) Agri-Dex® crop oil concentrate to obtain application solutions.
# (§6) For technical grade compounds, a weighed amount was placed in an individual 100 to 200 mL glass vial and was dissolved in a volume of acetone to obtain concentrated stock solutions. […] The concentrated stock solutions obtained were diluted with an equivalent volume of an aqueous mixture containing 2.5% (v/v) crop oil concentrate so that the final application solutions contained 1.25% (v/v) crop oil concentrate.
# (§7) Applications were made by injecting with a pipetter appropriate amounts of the application solutions, individually and sequentially, into the aqueous layer of the paddy. Control plants were treated in the same manner with the solvent blank. […]
# ISCRU = experiment: Example I: postemergence foliar-applied weed control, greenhouse; type: in vivo, Ischaemum rugosum Salisb. (saramollagrass); settings: 21 DAA
# From the text: (§8) Seeds or nutlets of the desired test plant species were planted in a soil matrix prepared by mixing a loam or sandy loam soil (e.g., 28.6 percent silt, 18.8 percent clay, and 52.6 percent sand, with a pH of about 5.8 and an organic matter content of about 1.8 percent) and calcareous grit in an 80 to 20 ratio. The soil matrix was contained in plastic pots with a volume of 1 quart and a surface area of 83.6 square centimeters (cm^2). When required to ensure good germination and healthy plants, a fungicide treatment and/or other chemical or physical treatment was applied. The plants were grown for 8-22 days in a greenhouse with an approximate 14 hr photoperiod which was maintained at about 29° C. during the day and 26° C. during the night. Nutrients (Peters Excel® 15-5-15 5-Ca 2-Mg and iron chelate) were applied in the irrigation solution as needed and water was added on a regular basis. Supplemental lighting was provided with overhead metal halide 1000-Watt lamps as necessary. The plants were employed for testing when they reached the first through fourth true leaf stage.
# (§9) Treatments consisted of the acid or esters of 4-amino-3-chloro-5-fluoro-6-(4-chloro-2-fluoro-3-methoxy-phenyl)pyridine-2-carboxylic acid (Compound A), each formulated as an SC (suspension concentrate), and various herbicidal components alone and in combination. Forms of compound A were applied on an acid equivalent basis.
# (§10) Other herbicidal components were applied on an active ingredient basis and included very long chain fatty acid (VLCFA) synthesis-inhibiting and fatty acid/lipid synthesis-inhibiting herbicides acetochlor (technical grade material), acetochlor+dichlormid formulated as Topnotch®, pretilachlor (technical grade material), butachlor formulated as Butachlor EC, fentrazamide formulated as Fentrazamide EC, thiobencarb formulated as Bolero® 8EC, cafenstrole formulated as Himeadow® WP or Lapost® Flowable, benfuresate formulated as Full Shot®, dimethenamid-P formulated as Outlook®, indanofan (technical grade material), flufenacet formulated as Define® DF, mefenacet (technical grade material), S-metolachlor formulated as Dual® II Magnum, pethoxamid formulated as Successor® 600, and pyroxasulfone (technical grade material).
# (§11) Treatment requirements were calculated based upon the rates being tested, the concentration of active ingredient or acid equivalent in the formulation, and a 12 mL application volume at a rate of 187 L/ha.
# For treatments comprised of formulated compounds, measured amounts of compounds were placed individually in 25 mL glass vials and diluted in a volume of 1.25% (v/v) Agri-Dex® crop oil concentrated to obtain 12× stock solutions. […]
# CYPIR = experiment: as above; type: in vivo, Cyperus iria L. (rice flatsedge); settings: 20 DAA
# From the text: as §8, §9, §10, §11
# (§12) For treatments comprised of formulated compounds, measured amounts of compounds were placed individually in 25 mL glass vials and diluted in a volume of 1.25% (v/v) Agri-Dex® crop oil concentrated to obtain 12× stock solutions. […] Application solutions were prepared by adding an appropriate amount of each stock solution (e.g., 1 mL) and diluted to the appropriate final concentrations with the addition of 10 mL of an aqueous mixture of 1.25% (v/v) crop oil concentrate so that the final spray solutions contained 1.25+/−0.05% (v/v) crop oil concentrate.
# (§13) For treatments comprised of technical compounds, weighed amounts can be placed individually in 25 mL glass vials and dissolved in a volume of 97:3 v/v acetone/DMSO to obtain 12× stock solutions. […] Application solutions can be prepared by adding an appropriate amount of each stock solution (e.g., 1 mL) and diluted to the appropriate final concentrations with the addition of 10 mL of an aqueous mixture of 1.5% (v/v) crop oil concentrate so that the final spray solutions contain 1.25% (v/v) crop oil concentrate. When technical materials are used, the concentrated stock solutions can be added to the spray solutions so that the final acetone and DMSO concentrations of the application solutions are […], respectively. […]
# ECHCO = experiment: as above; type: in vivo, Echinochloa colona (L.) Link (junglerice); settings: 20 DAA
# From the text: as §8, §9, §10, §11, §12, §13
# CYPRO = experiment: Example II: in-water applied weed control, transplanted paddy rice, greenhouse; type: in vivo, Cyperus rotundus L. (purple nutsedge); settings: 20 DAA
# Procedure: as §1, §2, §3, §4, §5, §6, §7
# DIGSA = experiment: Example I: postemergence foliar-applied weed control, greenhouse; type: in vivo, Digitaria sanguinalis (L.) Scop. (large crabgrass); settings: 20 DAA; 560 gai/ha
# From the text: as §8, §9, §10, §11, §12, §13
# GALAP = experiment: Example III: post-emergence foliar-applied weed control in cereal crops, greenhouse; type: in vivo, Galium aparine L.; settings: 21 DAA
# Procedure: (§14) Seeds of the desired test plant species were planted in Sun Gro MetroMix® 306 planting mixture, which typically has a pH of 6.0 to 6.8 and an organic matter content of about 30 percent, in plastic pots with a surface area of 103.2 square centimeters (cm^2). When required to ensure good germination and healthy plants, a fungicide treatment and/or other chemical or physical treatment was applied. The plants were grown for 7-36 days in a greenhouse with an approximate 14 hour photoperiod which was maintained at about 18° C. during the day and 17° C. during the night. Nutrients and water were added on a regular basis and supplemental lighting was provided with overhead metal halide 1000-Watt lamps as necessary. The plants were employed for testing when they reached the second or third true leaf stage.
# (§15) Treatments consisted of the benzyl ester of 4-amino-3-chloro-5-fluoro-6-(4-chloro-2-fluoro-3-methoxy-phenyl)pyridine-2-carboxylic acid (Compound A), formulated as an SC (suspension concentrate), and a second cereal herbicide alone and in combination.
# (§16) Measured aliquots of the benzyl ester of 4-amino-3-chloro-5-fluoro-6-(4-chloro-2-fluoro-3-methoxy-phenyl)pyridine-2-carboxylic acid (Compound A) were placed in 25 milliliter (mL) glass vials and diluted in a volume of 1.25% (v/v) Agri-dex crop oil concentrated to obtain stock solutions. Compound requirements are based upon a 12 mL application volume at a rate of 187 liters per hectare (L/ha). Spray solutions of the second cereal herbicide and experimental compound mixtures were prepared by adding the stock solutions to the appropriate amount of dilution solution to form 12 mL spray solution with active ingredients in two- and three-way combinations. Formulated compounds were applied to the plant material with an overhead Mandel track sprayer equipped with an 8002E nozzle calibrated to deliver 187 L/ha over an application area of 0.503 square meters (m^2) at a spray height of 18 inches (46 cm) above average plant canopy. Control plants were sprayed in the same manner with the solvent blank.
# (§17) The treated plants and control plants were placed in a greenhouse as described above and watered by sub-irrigation to prevent wash-off of the test compounds. After 20-22 days, the condition of the test plants as compared with that of the control plants was determined visually and scored on a scale of 0 to 100 percent where 0 corresponds to no injury and 100 corresponds to complete kill.
# (§18) Colby's equation was used to determine the herbicidal effects expected from the mixtures (Colby, S. R. 1967. Calculation of the synergistic and antagonistic response of herbicide combinations. Weeds 15:20-22.).
# CHEAL = experiment: as above; type: in vivo, Chenopodium album L.; settings: 21 DAA
# Procedure: as §14, §15, §16, §17, §18
# SINAR = experiment: as above; type: in vivo, Sinapis arvensis L.; settings: 21 DAA
# Procedure: as §14, §15, §16, §17, §18
# KCHSC = experiment: as above; type: in vivo, Kochia scoparia (L.) Schrad.; settings: 21 DAA
# Procedure: as §14, §15, §16, §17, §18
# STEME = experiment: as above; type: in vivo, Stellaria media (L.) Vill.; settings: 21 DAA
# Procedure: as §14, §15, §16, §17, §18
# SASKR = experiment: as above; type: in vivo, Salsola tragus L.; settings: 21 DAA
# Procedure: as §14, §15, §16, §17, §18
# PAPRH = experiment: as above; type: in vivo, Papaver rhoeas L.; settings: 21 DAA
# Procedure: as §14, §15, §16, §17, §18
structure (smiles),measurement,setting,value
"CCN(CC)C(=O)SCc1ccc(Cl)cc1 [Thiobencarb, S-[(4-chlorophenyl)methyl]N,N-diethylcarbamothioate]",Visual Weed Control (%) - 20 DAA ECHOR Obs,ECHOR; 1120 gai/ha,60%
same,pest or weed control at 1120 g/ha,"ECHOR; Echinochloa oryzoides, 480 h, 1120 gai/ha, 20 DAA, read-out: Visual Weed Control ECHOR Obs",60%
same,pest or weed control at 2240 g/ha,"ECHOR; Echinochloa oryzoides, 480 h, 2240 gai/ha, 20 DAA, read-out: Visual Weed Control ECHOR Obs",90%
same,Visual Weed Control Obs,ISCRU; 1120 gai/ha,0%
same,Visual Weed Control Obs,ISCRU; 2240 gai/ha,0%
same,Visual Weed Control Obs,CYPIR; 560 gai/ha,0%
same,Visual Weed Control Obs,CYPIR; 1120 gai/ha,0%
same,Visual Weed Control Obs,CYPIR; 2240 gai/ha,0%
same,Visual Weed Control Obs,ECHCO; 560 gai/ha,45%
same,Visual Weed Control Obs,ECHCO; 1120 gai/ha,40%
same,Visual Weed Control CYPRO Obs,CYPRO; 1120 gai/ha,0%
same,Visual Weed Control CYPRO Obs,CYPRO; 2240 gai/ha,0%
same,Visual Weed Control Obs,DIGSA,20%
"CCCN(CCC)C(=O)SCc1ccccc1 [Prosulfocarb, S-(phenylmethyl) dipropylcarbamothioate]",Visual Weed Control GALAP Obs,GALAP; 1000 gai/ha,15%
same,Visual Weed Control GALAP Obs,GALAP; 2000 gai/ha,40%
same,Visual Weed Control GALAP Obs,GALAP; 4000 gai/ha,67%
same,Visual Weed Control CHEAL Obs,CHEAL; 1000 gai/ha,10%
same,Visual Weed Control CHEAL Obs,CHEAL; 2000 gai/ha,15%
same,Visual Weed Control SINAR Obs,SINAR; 1000 gai/ha,13%
same,Visual Weed Control SINAR Obs,SINAR; 2000 gai/ha,18%
same,Visual Weed Control KCHSC Obs,KCHSC; 1000 gai/ha,10%
same,Visual Weed Control KCHSC Obs,KCHSC; 2000 gai/ha,15%
same,Visual Weed Control KCHSC Obs,KCHSC; 4000 gai/ha,75%
same,Visual Weed Control STEME Obs,STEME; 1000 gai/ha,0%
same,Visual Weed Control STEME Obs,STEME; 2000 gai/ha,10%
same,Visual Weed Control STEME Obs,STEME; 4000 gai/ha,73%
same,Visual Weed Control SASKR Obs,SASKR; 1000 gai/ha,5%
same,Visual Weed Control SASKR Obs,SASKR; 2000 gai/ha,5%
same,Visual Weed Control SASKR Obs,SASKR; 4000 gai/ha,63%
same,Visual Weed Control PAPRH Obs,PAPRH; 1000 gai/ha,5%
same,Visual Weed Control PAPRH Obs,PAPRH; 2000 gai/ha,10%
same,Visual Weed Control PAPRH Obs,PAPRH; 4000 gai/ha,13%
